Measurements from publication PMC10424187, “Structure-Guided Design and Synthesis of a Pyridazinone Series of Trypanosoma cruzi Proteasome Inhibitors” (Journal of Medicinal Chemistry, 2023).
Values joined by “and” are separate entries in the source; they are usually repeats but may differ in a detail not shown here. Equal values may be shown once.

How the values were obtained:
Human 20S proteasome = Human 20S proteasome (Homo sapiens, UniProt P28074+P49721); assay: human proteasome assay (chymotrypsin-like activity, Suc-LLVY-Rho-110-DPro); conditions: for Emax: read-out: Hs Prot Max Response (%), individual replicate
Procedure: T. cruzi and human proteasome assays
(§1) The T. cruzi proteasome was partially purified as described in the above reference and Human
(§2) 20S proteasome was purchased from Boston Biochem (now R&D Systems, catalogue number
(§3) a Tecan Fluent to titrate over 11 points in Labcyte Echo-compatible Greiner Bio-One 384 well
(§4) polypropylene microplates. Subsequently, 100 nl of test compound titrations were transferred
(§5) to black Greiner Bio-One low volume 384 well microplates using a Labcyte Echo acoustic
(§6) 50 mM HEPES pH 7.5, 150 mM sodium chloride, 5% Glycerol, 1 mM dithiothreitol, 1 mM
(§7) CHAPS in deionised, filtered water (all chemicals purchased from Sigma Aldrich). Human 20S
(§8) These enzyme solutions were prepared immediately prior to assay initiation and stored at 4 °C
(§9) To monitor the Chymotrypsin-like activity of the T. cruzi and Human 20S proteasome proteins
(§10) a self-quenched, Rhodamine 110-labelled peptide with the sequence Suc-LLVY-Rho-110-
(§11) DPro was used (prepared by Cambridge Research Biochemicals. Suc is succinyl, while DPro
(§12) refers to ᴅ-proline). The peptide was initially prepared from solid as a 10 mM solution in 100%
(§13) DMSO and stored at -20 °C. Prior to use in the assay, an aliquot was thawed at room
(§14) to twofold Km. For use with the Human 20S proteasome, the Suc-LLVY-Rho-110-DPro
(§15) peptide was diluted in assay buffer to a concentration equivalent to twofold Km, which for this
(§16) enzyme was 2 μM. The peptide solutions were protected from light and stored at 4 °C before
(§17) A Multidrop Micro (Thermo Fisher), using a low volume dispense cassette, was used to add
(§18) the assay solutions to the test compounds in the low volume 384-well microplates. Prior to
(§19) addition of proteasome solution, 5 μl of assay buffer was added to one column (containing 100
(§20) nl, 100% DMSO) to act as no enzyme control to mimic full inhibition. Subsequently, 5 μl of
(§21) proteasome solution (either T. cruzi or Human 20S) was added to all wells on the test
(§22) microplate apart from the column containing 5 μl assay buffer. The microplate was then spun
(§23) using a suitable bench top centrifuge for 1 minute at 1000 rpm, before incubation at room
(§24) Following the initial incubation, 5 μl of substrate solution was then added to all wells on the
(§25) test microplate using a Multidrop Micro equipped with a discrete low volume dispense cassette.
(§26) The test microplates were then spun for 10 seconds at 1000 rpm before being rapidly moved to
(§27) a multi-mode microplate reader, capable of monitoring fluorescence intensity. The microplate
(§28) reader used for these studies was a Tecan M1000 Pro, equipped with quad monochromators.
(§29) 530 ± 5 nm. A series of fluorescence intensity measurements were taken every 30 seconds for
(§30) Subsequently, the fluorescence intensity measurements (relative fluorescence units, RFU) were
(§31) fit to a simple linear regression model (y = A + Bx, where y refers to the fluorescence intensity
(§32) and x refers to the time in seconds) to determine the initial rate of reaction. The initial rate for
(§33) every compound concentration tested was then fit a 4-parameter logistic model: y = (A + (B -
(§34) A)) / (1 + (x / C)D), where y refers to the assay response, x refers to the inhibitor concentration,
(§35) A and B are the range values (minimum and maximum, respectively), C is the IC50 value and
(§36) D is the slope. Potency values were then reported as pIC50, which is the negative log of the
(§37) IC50 (on a molar scale). Data analysis was automated and carried out using the ActivityBase

[1] = test system: intracellular T. cruzi X10/7 A1 amastigotes
T. cruzi proteasome = T. cruzi proteasome (Trypanosoma cruzi, UniProt V5BU39+V5C017); assay: T. cruzi proteasome assay (chymotrypsin-like activity, Suc-LLVY-Rho-110-DPro); conditions: for Tc Prot Hill Slope / Tc Prot Max Response (%): individual replicate; for T. cruzi Prot pIC50: mean of at least three independent replicates; for Emax: read-out: Tc Prot Max Response (%), individual replicate
Procedure: T. cruzi and human proteasome assays
as §1, §2, §3, §4, §5, §6, §7, §8, §9, §10, §11, §12, §13, §14, §15, §16, §17, §18, §19, §20, §21, §22, §23, §24, §25, §26, §27, §28, §29, §30, §31, §32, §33, §34, §35, §36, §37

ChromLogD = type: physicochemical; conditions: pH 7.4; read-out: Chrom LogDpH7.4
Procedure: Chrom LogD was measured as previously described:
solubility and hydrophobicity. Drug Discov. Today 2010, 15, 648−655. […]

[2] = Mouse microsomal intrinsic clearance; type: in vitro ADME; conditions: mouse liver microsomes, scaling 52.5 mg microsomal protein/g liver
Procedure: Mouse microsomal intrinsic clearance.
This assay was conducted as previously described:
J.; Reid, I. H.; Hill, A. P.;
were prepared by adding a volume (5 µL) of the 10 mM solution to a volume (195 µL) of […]

[3] = mean of at least three independent replicates
[4] = T. cruzi Prot pIC50, mean of at least three independent replicates
[5] = Tc Prot pIC50, individual replicate

Sequence of T. cruzi proteasome (V5BU39 entry or part of it): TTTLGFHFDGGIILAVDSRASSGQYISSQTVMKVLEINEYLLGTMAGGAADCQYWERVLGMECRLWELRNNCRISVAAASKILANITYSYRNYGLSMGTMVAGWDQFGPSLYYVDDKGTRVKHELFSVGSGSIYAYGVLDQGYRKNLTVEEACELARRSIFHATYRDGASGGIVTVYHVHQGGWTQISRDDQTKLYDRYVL
Sequence of T. cruzi proteasome (V5C017 entry or part of it): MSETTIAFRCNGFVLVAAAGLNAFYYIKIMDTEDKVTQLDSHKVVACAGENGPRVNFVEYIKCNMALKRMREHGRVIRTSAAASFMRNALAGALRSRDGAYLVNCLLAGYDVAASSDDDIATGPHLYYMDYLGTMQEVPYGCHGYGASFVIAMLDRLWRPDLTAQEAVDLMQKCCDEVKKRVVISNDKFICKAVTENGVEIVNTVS

Row | SMILES | Hs Prot Max Response (%) (Human 20S proteasome; individual replicate) | Hs Prot pIC50 (Human 20S proteasome; individual replicate) | Hs Prot pIC50 (Human 20S proteasome; [3]) | EC50 [1] | Emax [1] | IC50 (T. cruzi proteasome; [4]) [nM] | Tc Prot Hill Slope (T. cruzi proteasome) | Tc Prot Max Response (%) (T. cruzi proteasome) | chromatographic logD (ChromLogD) | IC50 (T. cruzi proteasome; [5]) | T. cruzi Prot pIC50 (T. cruzi proteasome) | Emax (T. cruzi proteasome) [%] | Mouse CLi [2] [mL/min/g] | EC50 (host VERO cells) | Emax (host VERO cells) [%] | Emax (Human 20S proteasome) [%]
1 | O=C(NC1CC1)c1cccc(NC(=O)c2ccc(=O)n(Cc3ccccc3)n2)c1 [Compound 5, 1-Benzyl-N-(3-(cyclopropylcarbamoyl)phenyl)-6-oxo-1,6-dihydropyridazine-3-carboxamide] | 18% and 4% and 2% and 9% and 19% and 28% and 3% and 8% and 12% and 13% and 11% and 20% and 10% and 15% | < 4 | <4 | 7940 nM | 73% and 75% and 70% and 81% and 55% and 80% and 83% | 631 | 0.5 and 0.8 and 0.9 and 1.1 and 0.95 and 1.0 and 0.74 and 0.7 and 0.6 | 105% and 88% and 77% and 79% and 81% and 80% and 73% and 74% and 75% and 78% | – | – | – | – | – | – | – | –
2 | CN(C(=O)c1ccc(=O)n(Cc2ccccc2)n1)c1cccc(C(=O)NC2CC2)c1 [Compound 6, 1-Benzyl-N-(3-(cyclopropylcarbamoyl)phenyl)-N-methyl-6-oxo-1,6-dihydropyridazine-3-carboxamide] | 28% and 21% and 6% | < 4 | <4 | > 50100 nM | – | > 100000 | – | – | 3.3 | > 100000 nM | complete loss of activity | 30 | 11 | – | – | –
3 | CN(C(=O)c1cccc(NC(=O)c2ccc(=O)n(Cc3ccccc3)n2)c1)C1CC1 [Compound 7, 1-Benzyl-N-(3-(cyclopropyl(methyl)carbamoyl)phenyl)-6-oxo-1,6-dihydropyridazine-3-carboxamide] | 20% and 27% and 10% | < 4 | <4 | > 50100 nM | 42% | 20000 | 0.8 and 0.75 | 75% and 49% and 40% and 61% | 4.5 | 25100 nM and > 100000 nM and 15800 nM | – | – | 19 | > 50100 nM | 11 | –
4 | O=C(Nc1cccc(C(=O)NC2CC2)c1)c1ccc(=O)n(Cc2ccccc2)c1 [Compound 8, 1-Benzyl-N-(3-(cyclopropylcarbamoyl)phenyl)-6-oxo-1,6-dihydropyridine-3-carboxamide] | 12% and 6% | < 4 | <4 | > 50100 nM | – | 1580 | 1.0 and 0.9 | 85% and 77% | 3.3 | 2510 nM and 2000 nM and 794 nM | – | 80 | 0.8 | > 50100 nM and 39800 nM and 25100 nM | – | 10
5 | O=C(Nc1ccc(F)c(C(=O)NC2CC2)c1)c1ccc(=O)n(CC2CCCCC2)n1 [Compound 11, 1-(Cyclohexylmethyl)-N-(3-(cyclopropylcarbamoyl)-4-fluorophenyl)-6-oxo-1,6-dihydropyridazine-3-carboxamide] | 13% and 33% | < 4 | <4 | 7940 nM and 10000 nM and 5010 nM and 6310 nM | 84% and 78% and 86% and 88% | 398 | 0.9 and 0.85 | 87% | 5.3 | 501 nM and 316 nM | – | 78 | 7.3 | > 50100 nM | 11 | –
6 | COc1cccc(Cn2nc(C(=O)Nc3ccc(F)c(C(=O)NC4CC4)c3)ccc2=O)c1 [Compound 13, N-(3-(Cyclopropylcarbamoyl)-4-fluorophenyl)-1-(3-methoxybenzyl)-6-oxo-1,6-dihydropyridazine-3-carboxamide] | 7% | < 4 | <4 | > 50100 nM | 23% | > 100000 | – | 2% and 10% | 5.5 | > 100000 nM | complete loss of potency | – | 25 | – | – | 9
7 | COc1ccc(Cn2nc(C(=O)Nc3ccc(F)c(C(=O)NC4CC4)c3)ccc2=O)cc1F [Compound 15, N-[3-(Cyclopropylcarbamoyl)-4-fluorophenyl]-1-[(3-fluoro-4-methoxy-phenyl)methyl]-6-oxo-pyridazine-3-carboxamide] | 17% and 16% and 19% and 12% and 6% and 8% and 5% and 1% | < 4 | <4 | 158 nM | 95% and 98% and 93% and 90% and 85% and 94% and 89% and 88% | – | – | – | – | – | – | – | – | – | – | –
8 | COc1ccc(Cn2nc(C(=O)Nc3ccc(F)c(C(=O)N[C@H]4C[C@H](OC)C4)c3)ccc2=O)cc1 [Compound 19, N-(4-Fluoro-3-((trans-3-methoxycyclobutyl)carbamoyl)phenyl)-1-(4-methoxybenzyl)-6-oxo-1,6-dihydropyridazine-3-carboxamide] | 14% | < 4 | <4 | – | 86% and 80% and 94% and 101% and 90% and 88% | – | 1.0 and 1.1 and 0.9 | 84% and 95% | – | 31.6 nM | – | 78 | – | – | – | 16
9 | COc1ccc(Cn2nc(C(=O)Nc3ccc(F)c(C(=O)N[C@H]4C[C@H](OC)C4)c3)ccc2=O)cc1F [Compound 20, N-(4-Fluoro-3-((trans-3-methoxycyclobutyl)carbamoyl)phenyl)-1-(3-fluoro-4-methoxybenzyl)-6-oxo-1,6-dihydropyridazine-3-carboxamide] | 23% | < 4 | <4 | – | 100% and 94% and 92% and 97% | 6.31 | 0.9 | 63% and 86% | – | 6.31 nM | – | – | – | – | – | 20
10 | COc1ccc(Cn2nc(C(=O)Nc3ccc(F)c(C(=O)NCCN4CCOCC4)c3)ccc2=O)cc1F [Compound 22, 1-[(3-Fluoro-4-methoxy-phenyl)methyl]-N-[4-fluoro-3-(2-morpholinoethylcarbamoyl)phenyl]-6-oxo-pyridazine-3-carboxamide] | 7% and 14% and 2% | – | – | – | 99% and 93% and 95% and 97% and 98% and 91% and 96% | – | 1.0 and 0.9 | 80% and 81% | – | 15.8 nM | – | 72 | – | – | – | –
11 | COc1ccc(Cn2nc(C(=O)Nc3ccc(F)c(C(=O)N[C@H]4C[C@H](N5CCOCC5)C4)c3)ccc2=O)cc1F [Compound 23, N-(4-Fluoro-3-((trans-3-morpholinocyclobutyl)carbamoyl)phenyl)-1-(3-fluoro-4-methoxybenzyl)-6-oxo-1,6-dihydropyridazine-3-carboxamide] | 15% and 17% | < 4 | <4 | – | 96% and 93% and 98% and 95% and 97% and 94% | 7.94 | 1.2 and 1.1 | 86% | – | 5.01 nM | – | 88 | – | – | – | 13
12 | COc1ccc(Cn2nc(C(=O)Nc3ccc(F)c(C(=O)N[C@H]4C[C@@H](N5CCOCC5)C4)c3)ccc2=O)cc1F [Compound 24, N-(4-Fluoro-3-((cis-3-morpholinocyclobutyl)carbamoyl)phenyl)-1-(3-fluoro-4-methoxybenzyl)-6-oxo-1,6-dihydropyridazine-3-carboxamide] | 6.38% and 29% and 23% | < 4 | <4 | – | 93% and 95% and 98% and 96% | 7.94 | 1.1 | 85% and 87% | – | 6.31 nM | – | 82 | – | – | 16 | –
13 | COc1ccc(Cn2nc(C(=O)Nc3ccc(F)c(C(=O)N[C@H](C)CO)c3)ccc2=O)cc1F [Compound 25, (R)-N-(4-Fluoro-3-((1-hydroxypropan-2-yl)carbamoyl)phenyl)-1-(3-fluoro-4-methoxybenzyl)-6-oxo-1,6-dihydropyridazine-3-carboxamide] | 0.497% and 2.25% and 10% and 4.33% and 5% and 2.24% and 9% | < 4 | <4 | 398 nM | 92% and 96% and 91% and 89% and 95% and 99% | 50.1 | 1.1 and 0.95 and 0.9 and 1.0 | 80% and 82% and 79% | – | 39.8 nM and 31.6 nM and 63.1 nM | – | 81 | – | – | – | –
14 | CNC(=O)c1cc(NC(=O)c2ccc(=O)n(Cc3ccc(OC)c(F)c3)n2)ccc1F [Compound 27, 1-[(3-Fluoro-4-methoxy-phenyl)methyl]-N-[4-fluoro-3-(methylcarbamoyl)phenyl]-6-oxo-pyridazine-3-carboxamide] | 3.52% | < 4 | <4 | 316 nM | 99% and 88% and 89% and 96% and 90% and 97% and 94% | 6.31 | 1.0 and 0.9 | 60% and 80% and 81% | – | 3.98 nM and 10 nM and 7.94 nM | – | – | – | – | – | 6
